Measured values reported in US10695341B2, “Compositions and methods for treating endometriosis” (UNIVERSITY OF SOUTH FLORIDA, priority 2014, dated 2020).

Experiments:
[1] = test system: Life-extended endometriotic (IE) cells; experiment: Crystal violet growth/survival of life-extended endometriotic (IE) cells treated with chloroquine; assay type: cell-based, human; details: 25 μM chloroquine, up to about 96 hours, crystal violet absorbance
Procedure: Life-extended endometriotic (IE) cells were treated with 25 μM chloroquine for up to about 96 hours. Cells were then stained with crystal violet and measured for overall growth at an absorbance of […], using a Bioteck plate reader.

LC3-II = LC3-II levels in IE cells after chloroquine; assay type: cell-based, human; details: chloroquine treatment

Question: How did the cellular survival [1] turn out when CCN(CC)CCCC(C)Nc1ccnc2cc(Cl)ccc12 (centres unmarked) [chloroquine] was run?
Answer: dramatically inhibited

Question: What about the LC3-II levels (LC3-II) of the same compound?
Answer: marked increase
